As usually defined, the inhibition is the relative decrease from the control value, in per cent. One may read the half-life as the time in which the quantity being followed falls by half. Low readings indicate rapid decline, high ones slow decline.

Results on 6 compounds are retold here after patent publication US10815197B2, “N-sulfonyl benzamides as voltage-gated sodium channel inhibitors” (SHANGHAI HAIYAN PHARMACEUTICAL TECHNOLOGY CO., LTD., priority 2016, dated 2020).

Data set [1] addresses T1, hNav1.7 (Homo sapiens, UniProt Q15858).
T1 construct: host or cells: CHO
As to the kind of experiment: Manual patch clamp experiment hNav1.7 (CHO-hNav1.7 stable cell line). The data set is classed as cell-based. Particulars: for inhibition at 0.1 µM: compound at 100 nM, read-out: Inhibition of Nav1.7 100 nM(%); for inhibition at 1 µM: compound at 1000 nM, read-out: Inhibition of Nav1.7 1000 nM(%). A digest of the protocol:
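Whole-cell manual patch clamp on CHO-hNav1.7 or HEK-hNav1.5 cells, extracellular pH 7.3, CsF-based internal. Sodium current elicited by 20 ms steps to −10 mV from either V1/2 holding (with 50 ms −120 mV prepulse) or −120 mV holding, every 10 s; inhibition from current before versus after dosing, IC50 by Hill fit.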

The nature of data set [2]: Metabolism stability assay, human liver microsomes. The settings on record: for half-life at 1 µM: pH 7.4. The data set is classed as in vitro ADME. As for the experimental part:
Assay 4: Metabolism Stability Assay 1. […] Buffer A: 1 L solution of 100 mM potassium dihydrogen phosphate containing 1 mM EDTA (Sigma, V900157-100G) was prepared. Buffer B: 1 L solution of 100 mM dipotassium hydrogen phosphate containing 1 mM EDTA was prepared. Buffer C: 700 mL of buffer B was taken out and titrated with buffer A to pH 7.4. 2. […] 2.2 20 μl (20 mg/mL) of liver microsomes (Corning Lot. NO. 4133007) stock solution was added to 513.4 μl of buffer C on wet ice. 0.75 mg/mL liver microsomal solution was obtained. 2.3 1.5 μl of each of the above-mentioned compound to be tested and ketanserin solution was added to 498.5 μl of liver microsomal solution (0.7 5 mg/mL) respectively on wet ice. 1.5 μM mixed solution of compound to be tested and 1.5 μM mixed solution of ketanserin were obtained. 2.4 At the time points 0, 5, 15, 30, 45, and 60 min, 30 μl of the mixed solution of compound to be tested and 30 μl of the mixed solution of ketanserin were dispensed into the reaction plate on wet ice, respectively. 2.5 5 mg reduced coenzyme II (Roche, 10621706001) was weighed and dissolved in 1 mL of buffer C. 6 mM reduced coenzyme II solution was obtained. The reduced coenzyme II solution was dispensed into the reaction plate. 2.6 Imipramine was dissolved to give a 10 mM solution. 10 μl of imipramine solution was added to 100 mL of blank acetonitrile to generate the internal reference. 2.7 At 0 min, 135 μL of iced acetonitrile (Merck (Lot. 1778229518)) containing the internal reference was added to each well and then 15 μL of buffer C was added. 2.8 The reaction plate was placed into a 37° C. water bath incubator for 5 min. In the reaction plate, 15 μL of reduced coenzyme II solution was added to each well to initiate the reaction, and the timing was started. At the time points of 5, 15, 30, 45, and 60 min, 135 μL of iced acetonitrile containing the internal reference was added to each well to terminate the reaction. 2.9 The reaction plate was sealed with an aluminum film, placed on a vibration mixer and shaken at 500 rpm for 5 min. The plate was then centrifuged in a centrifuge at 3750 rp for 15 min. 2.10 The sample was diluted with pure water in accordance with the ratio of 1:1 and detected by LC/MS. Half-life: 0.693/K (the slope by plotting based on the incubation time and logarithm of the concentration value) Clearance ratio: (0.693/half-life)*(1/protein concentration (0.5 mg/mL))*(proportional factor) Wherein, the K value and the proportional factor were calculated by those skilled in the art according to the methods described in the prior art and contained in the instructions of the liver microsome product.
A general note: Microsomes from liver hold many membrane-bound enzymes, among them those of drug oxidation.

T1 sequence (Q15858 whole entry): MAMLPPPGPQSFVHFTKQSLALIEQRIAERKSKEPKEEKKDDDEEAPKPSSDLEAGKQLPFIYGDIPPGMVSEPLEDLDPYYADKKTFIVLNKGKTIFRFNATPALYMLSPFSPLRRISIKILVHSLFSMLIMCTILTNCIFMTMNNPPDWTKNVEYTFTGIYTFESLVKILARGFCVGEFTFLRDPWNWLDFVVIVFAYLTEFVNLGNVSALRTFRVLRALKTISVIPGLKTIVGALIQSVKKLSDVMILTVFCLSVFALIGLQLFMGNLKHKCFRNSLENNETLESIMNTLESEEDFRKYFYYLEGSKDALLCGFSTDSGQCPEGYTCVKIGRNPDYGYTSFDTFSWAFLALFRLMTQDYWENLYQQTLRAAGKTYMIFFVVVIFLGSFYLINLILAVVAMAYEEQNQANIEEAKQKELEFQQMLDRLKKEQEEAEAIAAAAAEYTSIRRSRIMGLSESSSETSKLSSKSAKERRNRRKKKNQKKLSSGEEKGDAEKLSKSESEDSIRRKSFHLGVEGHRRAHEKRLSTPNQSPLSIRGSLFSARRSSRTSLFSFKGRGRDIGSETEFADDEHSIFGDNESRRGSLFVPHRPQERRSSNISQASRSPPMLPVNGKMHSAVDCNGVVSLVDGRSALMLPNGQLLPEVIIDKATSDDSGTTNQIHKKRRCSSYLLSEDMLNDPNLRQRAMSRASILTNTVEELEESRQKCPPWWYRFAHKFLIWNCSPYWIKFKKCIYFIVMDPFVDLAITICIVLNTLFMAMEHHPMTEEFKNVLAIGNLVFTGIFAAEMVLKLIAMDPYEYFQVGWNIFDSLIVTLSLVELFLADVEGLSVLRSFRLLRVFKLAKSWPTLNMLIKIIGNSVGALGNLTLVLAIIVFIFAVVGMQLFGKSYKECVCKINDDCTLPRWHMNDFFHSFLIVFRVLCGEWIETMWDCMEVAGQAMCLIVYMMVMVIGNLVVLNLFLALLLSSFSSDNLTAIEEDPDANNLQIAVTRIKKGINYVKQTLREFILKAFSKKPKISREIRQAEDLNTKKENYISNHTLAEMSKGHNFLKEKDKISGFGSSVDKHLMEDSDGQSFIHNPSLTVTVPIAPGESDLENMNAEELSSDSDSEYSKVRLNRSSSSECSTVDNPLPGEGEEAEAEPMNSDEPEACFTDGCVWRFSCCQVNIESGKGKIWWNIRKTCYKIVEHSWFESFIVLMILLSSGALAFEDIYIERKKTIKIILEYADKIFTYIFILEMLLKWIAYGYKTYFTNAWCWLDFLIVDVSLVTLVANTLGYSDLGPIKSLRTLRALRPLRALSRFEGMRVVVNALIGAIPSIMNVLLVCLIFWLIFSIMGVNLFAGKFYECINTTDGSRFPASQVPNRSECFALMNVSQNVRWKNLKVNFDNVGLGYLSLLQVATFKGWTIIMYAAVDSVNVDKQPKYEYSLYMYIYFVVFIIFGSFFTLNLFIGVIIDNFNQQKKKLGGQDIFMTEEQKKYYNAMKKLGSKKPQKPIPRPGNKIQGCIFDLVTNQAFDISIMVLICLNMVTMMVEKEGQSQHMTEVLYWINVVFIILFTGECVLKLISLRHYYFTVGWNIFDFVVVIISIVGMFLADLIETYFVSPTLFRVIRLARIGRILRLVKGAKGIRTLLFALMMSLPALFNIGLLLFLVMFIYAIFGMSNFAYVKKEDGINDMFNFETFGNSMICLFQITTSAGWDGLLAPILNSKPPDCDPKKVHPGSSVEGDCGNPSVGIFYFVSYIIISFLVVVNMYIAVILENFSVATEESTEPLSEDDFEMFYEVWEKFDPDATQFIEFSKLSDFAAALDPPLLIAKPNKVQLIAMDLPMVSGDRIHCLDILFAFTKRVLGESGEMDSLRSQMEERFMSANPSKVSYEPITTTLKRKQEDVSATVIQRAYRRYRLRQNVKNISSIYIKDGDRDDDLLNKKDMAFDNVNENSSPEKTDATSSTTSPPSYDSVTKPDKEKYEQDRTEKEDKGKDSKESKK

As for `C[C@@H]1CN(c2ccc(Cl)c(Cl)c2)CCN1Cc1cc(F)c(C(=O)NS(=O)(=O)C2CC2)cc1Cl` [Compound Z-172, (R)-5-Chloro-N-(cyclopropylsulfonyl)-4-((4-(3,4-dichlorophenyl)-2-methylpiperazin-1-yl)methyl)-2-fluorobenzamide], in data set [1], the inhibition at 0.1 µM amounted to 89.1% and the inhibition at 1 µM came to 97.2%. For the same compound, in data set [2], the “Clearance” value stood at 2.20 mL/min/kg and the half-life at 1 µM was determined as 13.1 h.
On the same counts, the results for `CCc1cc(N2CCN(Cc3cc(F)c(C(=O)NS(=O)(=O)C4CC4)cc3Cl)CC2)ccc1Cl` [Compound Z-178] are 89.1%, 98.7%, 23.88 mL/min/kg and 1.21 h.
As to `Cc1ccc(N2CCN(Cc3cc(F)c(C(=O)NS(=O)(=O)C4CC4)cc3Cl)CC2)cc1Cl` [Compound Z-177], in data set [1], the inhibition at 0.1 µM stood at 89.2% and the inhibition at 1 µM was 98%. Besides, in data set [2], the “Clearance” value came out at 0.00 mL/min/kg and the “T1/2(min)” value is “∞”.
In the case of `O=C(NS(=O)(=O)C1CC1)c1cc(Cl)c(CN2CCN(c3ccc(C4CC4)c(Cl)c3)CC2)cc1F` [Compound Z-173], in data set [1], the inhibition at 0.1 µM turned out to be 93.8% and the inhibition at 1 µM was found to be 100%. In data set [2], the “Clearance” value is on record as 6.20 mL/min/kg and the half-life at 1 µM is 4.67 h.
As to `Cc1cc(N2CCN(Cc3cc(F)c(C(=O)NS(=O)(=O)C4CC4)cc3Cl)CC2)ccc1Cl` [Compound Z-164], in data set [1], the inhibition at 0.1 µM came to 89.7% and the inhibition at 1 µM was found to be 102%. The IC50 in data set [1] (read-out: Nav1.7(IC50/nM)) turned out to be 24.6 nM. Besides, in data set [2], the “Clearance” value was found to be 20.12 mL/min/kg and the half-life at 1 µM is 1.44 h.
For the compound `CCc1cc(C(=O)NS(=O)(=O)C2CC2)c(F)cc1CN1CCN(c2ccc(OC(F)(F)F)cc2)CC1` [Compound Z-189, N-(cyclopropylsulfonyl)-5-ethyl-2-fluoro-4-((4-(4-(trifluoromethoxy)phenyl)piperazin-1-yl)methyl)benzamide], in data set [1], the inhibition at 0.1 µM stood at 83.8% and the inhibition at 1 µM was 99.2%. Besides, in data set [2], the “Clearance” value came to 2.74 mL/min/kg and the “T1/2(min)” value is “∞”.
